Experimental findings from ChEMBL document CHEMBL3414499, “Characterization of two distinct structural classes of selective aldehyde dehydrogenase 1A1 inhibitors” (J Med Chem, 2015) are described below.

The target of test [1] is T1, Retinal dehydrogenase 2 (Homo sapiens) (UniProt O94788).
T1 sequence (whole entry): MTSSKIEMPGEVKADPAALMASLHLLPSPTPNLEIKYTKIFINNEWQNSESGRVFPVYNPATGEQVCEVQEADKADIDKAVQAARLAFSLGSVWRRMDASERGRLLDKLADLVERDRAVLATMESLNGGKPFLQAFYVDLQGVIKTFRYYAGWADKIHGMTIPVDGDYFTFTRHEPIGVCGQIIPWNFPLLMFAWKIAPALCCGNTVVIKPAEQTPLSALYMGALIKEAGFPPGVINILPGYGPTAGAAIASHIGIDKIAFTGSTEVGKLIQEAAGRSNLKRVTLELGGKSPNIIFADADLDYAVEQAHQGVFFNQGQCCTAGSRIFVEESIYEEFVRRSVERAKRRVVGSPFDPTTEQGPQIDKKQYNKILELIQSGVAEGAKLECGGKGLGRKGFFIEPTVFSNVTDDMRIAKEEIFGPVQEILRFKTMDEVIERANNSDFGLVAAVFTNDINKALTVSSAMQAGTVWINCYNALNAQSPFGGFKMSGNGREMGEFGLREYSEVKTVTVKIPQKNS
As to the kind of experiment: Activation of recombinant human ALDH1A2 using propionaldehyde as substrate at 20 uM preincubated for 2 mins with NAD+ followed by substrate addition by UV-Vis spectrophotometric analysis.

Test [2] concerns the target T2, Retinaldehyde dehydrogenase 3 (Homo sapiens) (UniProt P47895).
T2 sequence (whole entry): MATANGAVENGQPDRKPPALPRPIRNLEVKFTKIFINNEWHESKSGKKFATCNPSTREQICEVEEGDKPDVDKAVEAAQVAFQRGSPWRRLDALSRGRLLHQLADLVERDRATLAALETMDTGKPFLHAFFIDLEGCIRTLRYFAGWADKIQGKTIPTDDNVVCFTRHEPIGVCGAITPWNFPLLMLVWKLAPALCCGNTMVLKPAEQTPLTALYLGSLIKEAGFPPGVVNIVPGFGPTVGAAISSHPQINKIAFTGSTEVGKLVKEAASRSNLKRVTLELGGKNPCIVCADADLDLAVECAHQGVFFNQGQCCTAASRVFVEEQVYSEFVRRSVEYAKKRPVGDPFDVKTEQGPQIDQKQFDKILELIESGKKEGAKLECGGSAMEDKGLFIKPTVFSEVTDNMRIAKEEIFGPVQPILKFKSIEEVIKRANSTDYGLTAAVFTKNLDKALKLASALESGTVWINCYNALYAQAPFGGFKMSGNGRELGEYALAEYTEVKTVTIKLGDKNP
Nature of the test: Activation of recombinant human ALDH1A3 using propionaldehyde as substrate at 20 uM preincubated for 2 mins with NAD+ followed by substrate addition by UV-Vis spectrophotometric analysis.

In test [3] the target is T3, Aldehyde dehydrogenase, mitochondrial (Homo sapiens) (UniProt P05091).
T3 sequence (whole entry): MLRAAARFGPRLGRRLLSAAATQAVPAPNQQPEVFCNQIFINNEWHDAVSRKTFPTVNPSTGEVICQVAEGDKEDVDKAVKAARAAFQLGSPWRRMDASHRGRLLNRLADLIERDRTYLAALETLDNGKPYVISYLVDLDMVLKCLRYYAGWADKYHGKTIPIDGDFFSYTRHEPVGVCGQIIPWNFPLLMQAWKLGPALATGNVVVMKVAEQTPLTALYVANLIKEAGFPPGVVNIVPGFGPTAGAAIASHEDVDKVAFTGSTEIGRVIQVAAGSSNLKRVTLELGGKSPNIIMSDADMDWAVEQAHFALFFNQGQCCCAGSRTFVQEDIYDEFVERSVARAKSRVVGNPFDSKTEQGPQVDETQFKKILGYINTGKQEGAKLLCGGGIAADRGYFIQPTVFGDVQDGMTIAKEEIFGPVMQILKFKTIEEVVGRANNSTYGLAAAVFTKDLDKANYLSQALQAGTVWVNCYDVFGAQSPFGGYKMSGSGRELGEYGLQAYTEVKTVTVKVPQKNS
As to the kind of experiment: Activation of recombinant human ALDH2 using propionaldehyde as substrate at 20 uM preincubated for 2 mins with NAD+ followed by substrate addition by UV-Vis spectrophotometric analysis.

Test [4] has as its target T4, Aldehyde dehydrogenase X, mitochondrial (Homo sapiens) (UniProt P30837).
T4 sequence (whole entry): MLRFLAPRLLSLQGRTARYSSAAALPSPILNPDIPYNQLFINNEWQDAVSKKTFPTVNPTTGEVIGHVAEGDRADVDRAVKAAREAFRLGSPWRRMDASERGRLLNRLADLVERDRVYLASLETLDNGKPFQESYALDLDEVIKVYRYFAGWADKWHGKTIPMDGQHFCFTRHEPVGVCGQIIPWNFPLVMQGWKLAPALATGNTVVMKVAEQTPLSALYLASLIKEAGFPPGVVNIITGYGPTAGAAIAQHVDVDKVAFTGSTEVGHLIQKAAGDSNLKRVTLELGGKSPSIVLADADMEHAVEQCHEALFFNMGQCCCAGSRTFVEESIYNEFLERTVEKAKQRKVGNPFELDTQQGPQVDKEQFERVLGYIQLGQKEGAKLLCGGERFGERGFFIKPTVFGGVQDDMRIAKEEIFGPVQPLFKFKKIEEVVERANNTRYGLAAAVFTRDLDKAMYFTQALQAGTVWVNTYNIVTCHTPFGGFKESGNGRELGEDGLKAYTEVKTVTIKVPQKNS
Nature of the test: Activation of recombinant human ALDH1B1 using propionaldehyde as substrate at 20 uM preincubated for 2 mins with NAD+ followed by substrate addition by UV-Vis spectrophotometric analysis.

In test [5] the target is T5, Aldehyde dehydrogenase, dimeric NADP-preferring (Homo sapiens) (UniProt P30838).
T5 sequence (whole entry): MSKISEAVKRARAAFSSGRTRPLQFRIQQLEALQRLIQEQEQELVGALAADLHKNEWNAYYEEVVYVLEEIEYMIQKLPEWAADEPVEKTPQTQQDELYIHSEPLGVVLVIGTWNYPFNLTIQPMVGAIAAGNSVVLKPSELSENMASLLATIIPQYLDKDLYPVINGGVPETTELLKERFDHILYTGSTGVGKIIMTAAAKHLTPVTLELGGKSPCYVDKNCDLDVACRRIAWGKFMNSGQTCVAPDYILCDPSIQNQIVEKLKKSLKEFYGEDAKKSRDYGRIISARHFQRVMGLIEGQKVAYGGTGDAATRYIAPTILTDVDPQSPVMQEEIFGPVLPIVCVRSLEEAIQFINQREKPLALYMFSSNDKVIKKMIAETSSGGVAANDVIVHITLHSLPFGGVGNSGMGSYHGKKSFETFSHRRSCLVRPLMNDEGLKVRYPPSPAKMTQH
As to the kind of experiment: Inhibition of recombinant human ALDH3A1 using benzaldehyde as substrate at 100 uM preincubated for 2 mins with NAD+ followed by substrate addition by UV-Vis spectrophotometric analysis.

For test [6], the target named is T3, Aldehyde dehydrogenase, mitochondrial (Homo sapiens). Nature of the test: Inhibition of recombinant human ALDH2 using propionaldehyde as substrate at 100 uM preincubated for 2 mins with NAD+ followed by substrate addition by UV-Vis spectrophotometric analysis.

The structures appear in SMILES notation. Activity calls are given as the source filed them. No cut-off for these calls is given here. A value given as a limit tells only on which side of the number the result lay.

Regarding `CC(C)CCn1c(CN2CCOCC2)nc2c1c(=O)n(C)c(=O)n2C`, the Activity in test [1], in test [2], in test [3] and in test [4] was less than 10% throughout. In test [5], the inhibition result was “inactive”.

`CCN1CCN(Cc2nc3c(c(=O)n(C)c(=O)n3C)n2CC(=O)c2ccccc2)CC1`: the Activity in test [1], in test [2], in test [3] and in test [4] was less than 10% throughout. In addition, the inhibition entry in test [6] and in test [5] was “inactive” each time.

For `CCCCn1c(CN2CCN(c3ccc(OC)cc3)CC2)nc2c1c(=O)n(C)c(=O)n2C`, the Activity in test [1], in test [2], in test [3] and in test [4] was less than 10% each time. The inhibition entry in test [6] and in test [5] was “inactive” in each case.

For `Cn1c(=O)c2c(nc(SCC(N)=O)n2Cc2ccccc2F)n(C)c1=O`, the Activity in test [1], in test [2], in test [3] and in test [4] was less than 10% in each case. Besides, in test [6], the inhibition entry was “inactive”.

Turning to `Cn1c(=O)c2c(nc(CN3CCC(C(N)=O)CC3)n2CCCc2ccccc2)n(C)c1=O`, the Activity in test [1], in test [2], in test [3] and in test [4] was less than 10% throughout. Also, the inhibition result in test [5] is “inactive”.

For `Cn1c(=O)c2c(nc(N3CCN(Cc4ccccc4)CC3)n2Cc2cccc(Cl)c2)n(C)c1=O`, the Activity in test [1], in test [2], in test [3] and in test [4] was less than 10% each time. Further, the inhibition result in test [6] is “inactive”.

With `CCCCn1c(CN2CCN(c3cccc(Cl)c3)CC2)nc2c1c(=O)n(C)c(=O)n2C`, the Activity in test [1], in test [2], in test [3] and in test [4] was less than 10% throughout.

As to `CC(C)CCn1c(CN2CCN(C(=O)c3ccco3)CC2)nc2c1c(=O)n(C)c(=O)n2C`, the Activity in test [1], in test [2], in test [3] and in test [4] was less than 10% in each case. The inhibition result in test [6] was “inactive”.

For the molecule `Cn1c(=O)c2c(nc(N3CCOCC3)n2Cc2ccccc2F)n(C)c1=O`, the Activity in test [1], in test [2], in test [3] and in test [4] was less than 10% in each case. In addition, the inhibition entry in test [6] and in test [5] was “inactive” throughout.

For `CCCCn1c(Oc2ccc(C(=O)OC)cc2)nc2c1c(=O)n(C)c(=O)n2C`, the Activity in test [1], in test [2], in test [3] and in test [4] was less than 10% in each case. Moreover, the inhibition result in test [6] and in test [5] was “inactive” in each case.

For the molecule `CC(C)CCn1c(CN(C)Cc2ccccc2)nc2c1c(=O)n(C)c(=O)n2C`, the Activity in test [1], in test [2], in test [3] and in test [4] was less than 10% throughout. In addition, the inhibition entry in test [5] is “inactive”.
